In US7288528B2, “Aromatic fluoroglycoside derivatives, medicaments containing these compounds, and the use thereof” (Sanofi-Aventis Deutschland GmbH, priority 2002, dated 2007):

Target: T1, SGLT (Oryctolagus cuniculus, UniProt P11170)
T1 construct: To prepare brush border membranes from rabbit small intestine, rabbits were sacrificed; from tissue; host or cells: rabbit small intestine mucosa, brush border membrane vesicles (Mg2+ precipitation method)
T1 sequence (P11170 1-662): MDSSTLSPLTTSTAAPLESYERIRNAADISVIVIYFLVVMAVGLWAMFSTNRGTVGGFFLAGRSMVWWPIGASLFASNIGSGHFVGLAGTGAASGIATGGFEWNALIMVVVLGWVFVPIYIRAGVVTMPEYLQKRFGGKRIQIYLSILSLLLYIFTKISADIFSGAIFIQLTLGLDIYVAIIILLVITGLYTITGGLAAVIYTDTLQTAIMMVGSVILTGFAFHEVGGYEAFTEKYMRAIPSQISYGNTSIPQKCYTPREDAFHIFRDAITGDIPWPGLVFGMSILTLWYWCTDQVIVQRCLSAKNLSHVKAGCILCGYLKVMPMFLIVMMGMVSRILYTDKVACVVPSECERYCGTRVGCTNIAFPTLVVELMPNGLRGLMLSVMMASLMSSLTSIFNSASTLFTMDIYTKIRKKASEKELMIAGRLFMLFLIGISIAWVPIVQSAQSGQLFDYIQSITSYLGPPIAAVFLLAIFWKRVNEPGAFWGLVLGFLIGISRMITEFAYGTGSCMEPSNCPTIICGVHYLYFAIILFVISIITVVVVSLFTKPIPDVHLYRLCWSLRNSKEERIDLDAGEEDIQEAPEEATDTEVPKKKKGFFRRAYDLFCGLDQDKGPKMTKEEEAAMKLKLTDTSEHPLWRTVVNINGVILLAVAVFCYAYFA
Assay: Glucose uptake by brush border membrane vesicles (transport assay, membrane filtration method)
Assay type: biochemical
Conditions: uptake of 10 μM [14C]D-glucose into rabbit small intestine brush border membrane vesicles, 30° C., 15 seconds

With `Cc1cc(O)c(C(=O)CCc2ccc3occc3c2)c(OC2OC(CO)C(F)C(O)C2O)c1` (single isomer, unassigned) [Example 5] as the compound, how does the IC50 read?
Its IC50 is 400 nM.

Which IC50 does the source give for `COc1ccc(CCC(=O)c2c(O)cc(C)cc2OC2OC(CO)C(F)C(O)C2O)cc1` (centres unmarked) [Example 7] here?
The IC50 was 900 nM.

`COc1ccc(Cc2ccccc2OC2OC(CO)C(F)C(O)C2O)cc1` (centres unmarked) [Example 1] was tested. Which IC50 did it give?
The IC50 was 500 nM.

For `OCC1OC(Oc2ccccc2Cc2ccccc2)C(O)C(O)C1F` (centres unmarked) [Example 2], which IC50 is on record?
The IC50 was 700 nM.

`Cc1cc(O)c(C(=O)CCc2ccc3occc3c2)c(OC2OC(CO)C(F)C(O)C2O)c1` (single isomer, unassigned) [Example 4] was tested. Which IC50 did it give?
The IC50 was 1500 nM.
